Data published in patent publication US7642274B2, “Inhibitor of pain threshold decrease” (Santen Pharmaceutical Co., Ltd., priority 2003, dated 2010).
Where a name gives a salt, the structure may show the parent alone.

Columns and labels:
[1] = system: repetitive cold stress rat models; assay: Test for inhibition of pain threshold decrease by repetitive cold stress (single administration), Randall-Selitto method; type: in vivo; conditions: 24 hours after single administration on day 8 of repetitive cold stress; orally 3 mg/kg; with stress; average of 6 cases
[2] = system: repetitive cold stress rat models; assay: Test for inhibition of pain threshold decrease by repetitive cold stress (continuous administration), Randall-Selitto method; type: in vivo; conditions: for inhibition in vivo at 3 mg/kg: Rattus norvegicus, 192 h, day 8 after applying the repetitive cold stress, orally 3 mg/kg once a day, with stress, average of 5 or 6 cases, read-out: Rate of inhibition of pain threshold decrease (%); for inhibition in vivo at 3 mg/kg / Rate of inhibition of pain threshold decrease (%): po; for Rate of inhibition of pain threshold decrease (%): rat, in vivo

COc1ccc(OCCCN(CCO)C(C)C)c(C2Sc3cc(Cl)ccc3N2C(C)=O)c1.Cl (single isomer, unassigned; (+)) [Compound A, (+)-3-acetyl-6-chloro-2-[2-(3-(N-(2-hydroxyethyl)-N-isopropylamino)propoxy)-5-methoxyphenyl]benzothiazoline hydrochloride]
Pain threshold (mmHg) [1]: 21.7 mmHg
Rate of inhibition of pain threshold decrease (%) [1]: 0%
inhibition in vivo at 3 mg/kg [2]: 52.1%

CC(=O)OC(C(=O)O)C(OC(C)=O)C(=O)O.COCCN(CCCOc1ccc(OC)cc1C1Sc2cc(Cl)ccc2N1C(C)=O)C(C)C (single isomer, unassigned; (+)) [Compound B, (+)-3-acetyl-6-chloro-2-[2-(3-(N-(2-methoxyethyl)-N-isopropylamino)propoxy)-5-methoxyphenyl]benzothiazolinediacetyl tartrate]
Pain threshold (mmHg) [1]: 21.5 mmHg
Rate of inhibition of pain threshold decrease (%) [1]: −1.9%
Rate of inhibition of pain threshold decrease (%) ([2]; 3 mg/kg): 53.9%

CC(=O)OC(C(=O)O)C(OC(C)=O)C(=O)O.CCOCCN(CCCOc1ccc(OC)cc1C1Sc2cc(Cl)ccc2N1C(C)=O)C(C)C (single isomer, unassigned; (+)) [Compound C, (+)-3-acetyl-6-chloro-2-[2-(3-(N-(2-ethoxyethyl)-N-isopropylamino)propoxy)-5-methoxyphenyl]benzothiazolinediacetyl tartrate]
Pain threshold (mmHg) [1]: 21.7 mmHg
Rate of inhibition of pain threshold decrease (%) [1]: 0%
Rate of inhibition of pain threshold decrease (%) ([2]; 3 mg/kg): 73.4%

COc1ccc(OCCCCl)c(C2Sc3cc(Cl)ccc3N2C(C)=O)c1 (single isomer, unassigned; (+)) [Compound F, (+)-3-acetyl-6-chloro-2-[2-(3-chloropropoxy)-5-methoxyphenyl]benzothiazoline hydrochloride]
inhibition in vivo at 3 mg/kg [2]: 43.1%

COc1ccc(OCCCN(CCOC(C)=O)C(C)C)c(C2Sc3cc(Cl)ccc3N2C(C)=O)c1 (single isomer, unassigned; (+)) [Compound H, (+)-2-[2-(3-(N-(2-acetoxyethyl)-N-isopropylamino)propoxy)-5-methoxyphenyl]-3-acetyl-6-chlorobenzothiazoline hydrochloride]
inhibition in vivo at 3 mg/kg [2]: 34.5%

COCOCCN(CCCOc1ccc(OC)cc1C1Sc2cc(Cl)ccc2N1C(C)=O)C(C)C.Cl (single isomer, unassigned; (+)) [Compound I, (+)-3-acetyl-6-chloro-2-[2-(3-(N-isopropyl-(N-methoxymethyloxyethyl)amino)propoxy)-5-methoxyphenyl]benzothiazoline hydrochloride]
Rate of inhibition of pain threshold decrease (%) ([2]; 3 mg/kg): 43.1%

COc1ccc(OC(C)CCN(CCO)C(C)C)c(C2Sc3cc(Cl)ccc3N2C(C)=O)c1 (stereo not drawn) [Compound G, 3-acetyl-6-chloro-2-[2-(3-(N-(2-hydroxyethyl)-N-isopropylamino)-1-methylpropoxy)-5-methoxyphenyl]benzothiazoline hydrochloride]
inhibition in vivo at 3 mg/kg [2]: 32.8%

CCOCCN(CCCOc1ccc(OC)cc1C1Sc2cc(Cl)ccc2N1C(C)=O)C(C)C.Cl (stereo not drawn) [Compound K, 3-acetyl-6-chloro-2-[2-(3-(N-(2-ethoxyethyl)-N-isopropylamino)propoxy)-5-methoxyphenyl]benzothiazolinediacetyl hydrochloride]
Rate of inhibition of pain threshold decrease (%) ([2]; 10 mg/kg): 62.7%

O=C(O)Cc1ccccc1Nc1c(Cl)cccc1Cl [Compound L, Diclofenac, reference compound]
activity on inhibiting a decrease in pain threshold ([2]; result in words, continuous administration once a day, day 8 of repetitive cold stress): not observed at all
